For data set [1], the target named is Serine/threonine-protein kinase B-raf (Homo sapiens, UniProt P15056, Y340D/Y341D).
Data set [2] in a line: Non-competitive inhibition of N-terminal GST-tagged human BRAF/MEK1/RAF1 Y340D/Y341D double mutant measured after 2 hrs in presence of 100 uM of ATP by TR-FRET assay. A general note: In TR-FRET formats the signal depends on donor and acceptor labels being close together.
Data set [3] concerns the target Dual specificity mitogen-activated protein kinase kinase 1 (Homo sapiens) (UniProt Q02750). Conditions: at 6.25 to 25 µM.
A short description of data set [4]: Non-competitive inhibition of N-terminal GST-tagged human BRAF/MEK1/RAF1 Y340D/Y341D double mutant measured after 2 hrs in presence of 300 uM of ATP by TR-FRET assay.
Data set [5] has as its system Enterovirus A71. The data set can be described thus: Inhibition of VP1 expression in human rhabdomyosarcoma cells infected with EV71 BC08 GU475127 pre-treated for 1 hr followed by viral infection measured after 24 hrs by western blotting analysis.
The target of data set [6] is Dual specificity mitogen-activated protein kinase kinase; MEK1/2 (Homo sapiens) (UniProt P36507+Q02750). Briefly: Inhibition of MEK1/2 phosphorylation in human rhabdomyosarcoma cells infected with EV71 BC08 GU475127 at 6.25 to 25 uM pre-treated for 1 hr followed by viral infection measured after 24 hrs by western blotting analysis.
Chain of Dual specificity mitogen-activated protein kinase kinase; MEK1/2 (Homo sapiens) (P36507 whole entry, looked up): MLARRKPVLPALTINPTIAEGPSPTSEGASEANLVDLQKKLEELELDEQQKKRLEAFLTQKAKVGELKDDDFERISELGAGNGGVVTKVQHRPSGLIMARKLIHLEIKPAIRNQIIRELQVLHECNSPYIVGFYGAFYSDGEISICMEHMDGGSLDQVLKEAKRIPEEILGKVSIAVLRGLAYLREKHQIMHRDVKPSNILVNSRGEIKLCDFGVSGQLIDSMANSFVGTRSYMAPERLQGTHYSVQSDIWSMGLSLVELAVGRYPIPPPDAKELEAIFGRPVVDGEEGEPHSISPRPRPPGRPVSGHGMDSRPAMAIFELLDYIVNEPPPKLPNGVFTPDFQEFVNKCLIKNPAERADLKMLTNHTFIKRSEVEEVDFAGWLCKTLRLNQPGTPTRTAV
Chain of Dual specificity mitogen-activated protein kinase kinase; MEK1/2 (Homo sapiens) (Q02750 whole entry, looked up): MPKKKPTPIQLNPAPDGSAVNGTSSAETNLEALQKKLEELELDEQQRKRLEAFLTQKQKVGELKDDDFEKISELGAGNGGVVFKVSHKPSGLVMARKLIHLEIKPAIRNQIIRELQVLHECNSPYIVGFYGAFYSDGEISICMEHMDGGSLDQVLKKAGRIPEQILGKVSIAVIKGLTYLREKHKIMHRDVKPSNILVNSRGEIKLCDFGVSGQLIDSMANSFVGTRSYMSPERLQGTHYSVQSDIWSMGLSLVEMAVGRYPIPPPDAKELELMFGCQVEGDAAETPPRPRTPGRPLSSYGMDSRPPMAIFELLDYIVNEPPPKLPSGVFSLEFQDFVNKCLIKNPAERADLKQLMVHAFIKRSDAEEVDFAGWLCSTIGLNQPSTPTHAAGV
Data set [7] can be described thus: Cytotoxicity activity against human rhabdomyosarcoma cells after 24 hrs by MTT assay. Type of data set: cell-based, Rhabdomyosarcoma cell. (Formazan colour is commonly taken as a measure of viable cells.)
Data set [8] can be described thus: Therapeutic index, ratio of CC50 for human rhabdomyosarcoma cells to EC50 for EV71 BC08 GU475127 infected in human rhabdomyosarcoma cells. As to conditions: read-out: Ratio CC50/EC50.
Data set [9] in a line: Non-competitive inhibition of N-terminal GST-tagged human BRAF/MEK1/RAF1 Y340D/Y341D double mutant measured after 2 hrs in presence of 33.33 uM of ATP by TR-FRET assay.
Data set [10] has as its system Enterovirus A71. Briefly: Antiviral activity against EV71 BC08 GU475127 infected in human rhabdomyosarcoma cells assessed as reduction in viral induced cytopathic effect measured after 24 hrs by phase-contrast microscopy. In kind it is functional, organism-based. As to conditions: Enterovirus A, BC08 GU475127, 24 h. (Protection from cytopathic effect is a common read-out in antiviral testing.)

This note sets out measurements from ChEMBL document CHEMBL3813666, “Discovery of 3-benzyl-1,3-benzoxazine-2,4-dione analogues as allosteric mitogen-activated kinase kinase (MEK) inhibitors and anti-enterovirus 71 (EV71) agents” (Bioorg Med Chem, 2016).

Calls of active or inactive are those of the source. No cut-off for these calls is given here.

Chain of Serine/threonine-protein kinase B-raf (P15056 whole entry, looked up, stated change not applied): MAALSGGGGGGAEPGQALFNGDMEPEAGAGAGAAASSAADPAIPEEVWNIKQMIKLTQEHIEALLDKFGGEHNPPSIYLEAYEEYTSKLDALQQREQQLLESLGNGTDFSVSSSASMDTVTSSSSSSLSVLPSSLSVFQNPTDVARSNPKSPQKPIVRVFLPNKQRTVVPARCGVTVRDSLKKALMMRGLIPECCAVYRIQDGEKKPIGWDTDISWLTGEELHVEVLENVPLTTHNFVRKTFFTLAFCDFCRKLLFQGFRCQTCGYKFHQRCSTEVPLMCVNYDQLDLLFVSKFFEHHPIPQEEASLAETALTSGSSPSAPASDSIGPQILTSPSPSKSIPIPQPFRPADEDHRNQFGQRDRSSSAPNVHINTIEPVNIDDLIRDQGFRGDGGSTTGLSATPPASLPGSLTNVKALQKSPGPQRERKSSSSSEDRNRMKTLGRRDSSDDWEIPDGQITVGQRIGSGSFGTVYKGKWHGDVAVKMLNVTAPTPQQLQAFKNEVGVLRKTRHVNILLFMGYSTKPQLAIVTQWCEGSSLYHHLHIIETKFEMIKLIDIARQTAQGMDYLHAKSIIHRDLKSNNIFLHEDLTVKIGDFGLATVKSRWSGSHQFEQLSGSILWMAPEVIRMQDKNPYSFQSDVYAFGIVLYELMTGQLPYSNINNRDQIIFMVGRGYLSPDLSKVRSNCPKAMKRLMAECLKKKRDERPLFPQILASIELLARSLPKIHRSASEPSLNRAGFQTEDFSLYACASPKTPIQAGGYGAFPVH
Chain of Dual specificity mitogen-activated protein kinase kinase 1 (Homo sapiens) (Q02750 whole entry): as the sequence (Q02750 whole entry, looked up) above

Take `CN(C)C(=O)Oc1ccc2c(=O)n(Cc3ccccc3F)c(=O)oc2c1`: the IC50 (in general, the midpoint of a concentration-inhibition curve) in data set [1] was greater than 10000 nM.

`CS(=O)(=O)Nc1cccc(Cn2c(=O)oc3cc(OC(=O)c4ccccc4)ccc3c2=O)c1F` showed an IC50 in data set [1] greater than 10000 nM.

Compound `CNS(=O)(=O)Nc1cccc(Cn2c(=O)oc3cc(OC(=O)C(C)C)ccc3c2=O)c1F` gave an IC50 in data set [1] of 720 nM.

Regarding `CN(C)C(=O)Oc1ccc2c(=O)n(Cc3ccccc3NS(C)(=O)=O)c(=O)oc2c1`, the IC50 in data set [1] was greater than 10000 nM.

As for `CNS(=O)(=O)Nc1cccc(Cn2c(=O)oc3cc(OC(C)=O)ccc3c2=O)c1F`, the IC50 in data set [1] was 610 nM.

In the case of `CN(C)C(=O)Oc1ccc2c(=O)n(Cc3cccc(NS(N)(=O)=O)c3F)c(=O)oc2c1`, the IC50 in [1] worked out at 840 nM.

The compound `CN(C)C(=O)Oc1ccc2c(=O)n(Cc3ccc(F)c(NS(C)(=O)=O)c3)c(=O)oc2c1` came in with an IC50 in data set [1] of 9870 nM.

`CC(C)NS(=O)(=O)Nc1cccc(Cn2c(=O)oc3cc(OC(=O)N(C)C)ccc3c2=O)c1F`: the IC50 in data set [1] is 210 nM.

`CN(C)C(=O)Oc1ccc2c(=O)n(Cc3cccc([N+](=O)[O-])c3)c(=O)oc2c1` displayed an IC50 in [1] greater than 10000 nM.

Turning to `CN(C)C(=O)Oc1ccc2c(=O)n(Cc3cccc(NS(=O)(=O)Nc4ccccc4)c3F)c(=O)oc2c1`, the IC50 in data set [1] stood at 1640 nM.

Consider `CN(C)C(=O)Oc1ccc2oc(=O)n(Cc3cccc(NS(C)(=O)=O)c3F)c(=O)c2c1`, for which the IC50 in data set [1] is greater than 10000 nM.

Regarding `CNS(=O)(=O)Nc1cccc(Cn2c(=O)oc3cc(OC(=O)N(C)C)ccc3c2=O)c1F`, the IC50 in data set [2] turned out to be 56 nM; in data set [4], 54 nM; in data set [9] it was 181 nM; in data set [1] it was 55 nM. Besides, the inhibition result in data set [3] and in data set [6] was “Active” in each case. Moreover, in the data set with Enterovirus A71 [5], the inhibition result is “Dose-dependent effect”. In [7], the CC50 (as a rule, the concentration giving 50% cytotoxicity) at 24 h was greater than 100 µM. Besides, the selectivity ratio in data set [8] was greater than 98. In addition, the EC50 (usually the concentration at which the effect is half-maximal) in the data set on Enterovirus A71 [10] is 1020 nM.

`CCCC(=O)Oc1ccc2c(=O)n(Cc3cccc(NS(=O)(=O)NC)c3F)c(=O)oc2c1` yielded an IC50 in data set [1] of 1200 nM.

Regarding `CN(C)C(=O)Oc1ccc2c(=O)n(Cc3cccc(NS(=O)(=O)NCCC#N)c3F)c(=O)oc2c1`, the inhibition result with Enterovirus A71 [5] is “Dose-dependent effect”. Moreover, in data set [6], the inhibition result is “Active”. For the same compound, in [7], the CC50 at 24 h was greater than 100 µM. Also, in data set [8], the selectivity ratio was greater than 25. Also, the IC50 in data set [1] turned out to be 60 nM. Also, in the data set with Enterovirus A71 [10], the EC50 worked out at 3920 nM.

In turn, `CN(C)C(=O)Oc1ccc2c(=O)n(Cc3cccc(NS(=O)(=O)NCc4ccccc4)c3F)c(=O)oc2c1` displayed an IC50 in [1] of 1490 nM.

With `CNC(=O)c1cc(Oc2ccc(NC(=O)Nc3ccc(Cl)c(C(F)(F)F)c3)cc2)ccn1` [SORAFENIB], the CC50 at 24 h in data set [7] came out at 7.05 µM.

Consider `CCS(=O)(=O)Nc1cccc(Cn2c(=O)oc3cc(OC(=O)N(C)C)ccc3c2=O)c1F`, for which the IC50 in [1] is 200 nM.

Consider `CC(=O)Nc1cccc(Cn2c(=O)oc3cc(OC(=O)N(C)C)ccc3c2=O)c1`, for which, in data set [1], the IC50 was greater than 10000 nM.

As for `COc1ccc2c(=O)n(Cc3cccc(NS(=O)(=O)NCCC#N)c3F)c(=O)oc2c1`, in data set [1], the IC50 is greater than 10000 nM.

Take `CN(C)C(=O)Oc1ccc2c(=O)n(Cc3ccc(NS(C)(=O)=O)cc3)c(=O)oc2c1`: the IC50 in [1] is greater than 10000 nM.

As to `CN(C)C(=O)Oc1ccc2c(=O)n(Cc3cccc(NS(C)(=O)=O)c3F)c(=O)oc2c1`, the IC50 in [1] was 300 nM.

On to `O=C(NOC[C@H](O)CO)c1ccc(F)c(F)c1Nc1ccc(I)cc1F`, for which the inhibition entry with Enterovirus A71 [5] is “Dose-dependent effect”.

Regarding `CCC(=O)Oc1ccc2c(=O)n(Cc3cccc(NS(=O)(=O)NC)c3F)c(=O)oc2c1`, in data set [1], the midpoint of inhibition, the IC50, lay at 230 nM.

For the compound `CN(C)C(=O)Oc1ccc2c(=O)n(Cc3cccc(NS(=O)(=O)NCC(F)(F)F)c3F)c(=O)oc2c1`, the IC50 in data set [1] came to 420 nM.

`CCS(=O)(=O)Oc1ccc2c(=O)n(Cc3cccc(NS(=O)(=O)NC)c3F)c(=O)oc2c1` came in with an IC50 in data set [1] of 670 nM.

`CN(C)C(=O)Oc1ccc2c(=O)n(Cc3cccc(NS(C)(=O)=O)c3)c(=O)oc2c1` gave an IC50 in data set [1] of 5920 nM.

Regarding `CNS(=O)(=O)Nc1cccc(Cn2c(=O)oc3cc(OS(C)(=O)=O)ccc3c2=O)c1F`, half-maximal inhibition in [1] (IC50) required 2540 nM.

Compound `CN(C)C(=O)Oc1ccc2c(=O)n(Cc3ccc(F)cc3)c(=O)oc2c1` gave an IC50 in data set [1] greater than 10000 nM.
